# Measurements reported in US11136409B2, “Compositions and methods for identification, assessment, prevention, and treatment of AML using USP10 biomarkers and modulators” (Dana-Farber Cancer Institute, Inc., priority 2016, dated 2021).
# “Also recorded” adds a separate entry of the source. Where two headings read alike, the source gives them in different places.
# Columns and labels:
# HEL = experiment: Anti-proliferation, 24 hr treatment (CellTiter-Glo); format: cell-based, human; conditions: 24 hr treatment; HEL (FLT3 wt or null); read-out: Anti-proliferation IC50
# Source text: (§1) Nomo-1, P31-FUJ, and NB4 were obtained from Dr. Gary Gilliland. MV4, 11 cells were obtained from Dr. Anthony Letai. Hel, K562, THP, U937, TF-1 and K052 cells were purchased from the American Type Culture Collection (ATCC) (Manassas, Va., USA). […] Cell lines were submitted for cell line authentication and were authenticated within 6 months of manuscript preparation through cell line short tandem repeat (STR) profiling (DDC Medical, Fairfield, Ohio and Molecular Diagnostics Laboratory, Dana Farber Cancer Institute). […] PBMCs were generously provided by Dr. Steven Treon and Dr. Guang Yang.
# (§2) The CellTiter-Glo® assay (Promega, Madison, Wis.) was used for proliferation studies and carried out according to manufacturer instructions. Cell viability is reported as percentage of control (untreated) cells, and error bars represent the standard error of the mean for each data point.
# K052 = experiment: as above; format: cell-based, human; conditions: 24 hr treatment; K052 (FLT3 wt or null); read-out: Anti-proliferation IC50
# Source text: as §1, §2
# K562 = experiment: as above; format: cell-based, human; conditions: 24 hr treatment; K562 (FLT3 wt or null); read-out: Anti-proliferation IC50
# Source text: as §1, §2
# MOLM13-luc+ = experiment: as above; format: cell-based, human; conditions: 24 hr treatment; MOLM13-luc+ (FLT3-ITD); read-out: Anti-proliferation IC50
# Source text: as §1, §2
# MOLM14 = experiment: as above; format: cell-based, human; conditions: 24 hr treatment; MOLM14 (FLT3-ITD); read-out: Anti-proliferation IC50
# Source text: as §1, §2
# MV4,11 = experiment: as above; format: cell-based, human; conditions: 24 hr treatment; MV4,11 (FLT3-ITD); read-out: Anti-proliferation IC50
# Source text: as §1, §2
# NB4-luc+ = experiment: as above; format: cell-based, human; conditions: 24 hr treatment; NB4-luc+ (FLT3 wt or null); read-out: Anti-proliferation IC50
# Source text: as §1, §2
# NOMO-1 = experiment: as above; format: cell-based, human; conditions: 24 hr treatment; NOMO-1 (FLT3 wt or null); read-out: Anti-proliferation IC50
# Source text: as §1, §2
# OCI-AML5 = experiment: as above; format: cell-based, human; conditions: 24 hr treatment; OCI-AML5 (FLT3 wt or null); read-out: Anti-proliferation IC50
# Source text: as §1, §2
# P31 = experiment: as above; format: cell-based, human; conditions: 24 hr treatment; P31 (FLT3 wt or null); read-out: Anti-proliferation IC50
# Source text: as §1, §2
# TF-1 = experiment: as above; format: cell-based, human; conditions: 24 hr treatment; TF-1 (FLT3 null); read-out: Anti-proliferation IC50
# Source text: as §1, §2
# U937 = experiment: as above; format: cell-based, human; conditions: 24 hr treatment; U937 (FLT3 wt or null); read-out: Anti-proliferation IC50
# Source text: as §1, §2
# PBMCs = experiment: Treatment of PBMCs from healthy donors with USP10-targeting inhibitors; format: cell-based, human
# Source text: as §1, §2
# [1] = system: AML primagraft (D835Y+, FLT3-ITD+) cells; experiment: Treatment of mutant FLT3-expressing AML primagraft cells ex vivo; format: cell-based, human; conditions: read-out: IC50 (+/−S.D.) AML primagraft (D835Y+, FLT3-ITD+)
# Description: All animal studies were performed according to protocols approved by the Dana-Farber Cancer Institute's Institutional Animal Care and Use Committee. […] Mice were sacrificed on day 21 of treatment. Bone marrow was flushed from mouse femurs, and spleens and livers were dissected and preserved first in formalin, followed 24 hours later by preservation in 70% ethanol. […] All AML primagraft samples used in the studies described herein were obtained through the Public Repository of Xenografts (proxe.org).
# as §2
# USP7 = USP7 (Homo sapiens, UniProt Q93009); experiment: USP7 IC50 of HBX19818 analogs (Table 9); format: biochemical; conditions: read-out: USP7 IC50 +/− SEM
# [2] = system: mutant FLT3-expressing cells; experiment: Dynamic BH3 profiling (mitochondrial priming); format: cell-based, human; conditions: cytochrome c release in response to Bim peptide, 14 h; compared to wt or null FLT3-expressing cells
# Description: To determine drug-induced changes in mitochondrial priming, dynamic BH3 profiling was performed as previously described in Montero et al. (2015) Cell 160:977-989 and Pan et al. (2014) Cancer Discov. 4:362-375. Briefly, 0.4×10^6 cells/well were exposed to drug treatment for 14 hours. At the end of incubation time, cells were washed in PBS, pelleted at 500×g for 5 min, and resuspended in MEB buffer. Fifteen μl of cell suspension was added to each well of 384 well plate containing 15 μl of MEB buffer containing 20 μg/mL digitonin and BH3 peptides at twice their final concentration, and the mixture was incubated for 60 min at 26° C. to allow mitochondrial depolarization. Peptide exposure was then terminated by adding 10 μl 4% formaldehyde in PBS for 15 min, followed by neutralization with N2 buffer (1.7M Tris, 1.25M glycine, pH 9.1) for 10 min. In order to determine cytochrome C levels, anti-cytochrome C clone 6H2.B4 conjugated to Alexa Fluor® 647 (BD Bioscience) was diluted 1:50 in 10× staining buffer (10% BSA, 2% Tween-20 and 0.02% sodium azide in PBS) and 10 μl of this antibody-containing buffer was added to each well for a final dilution of 1:400. Cells were stained overnight at 4° C. in dark and data were acquired on a BD LSRFortessa™ analyzer (BD Biosciences). Priming change (Δ) was calculated by comparing cytochrome C abundance in treated cells to that of DMSO-treated control cells.
# [3] = target: T1, human USP10 (residues 376-798) (Homo sapiens, UniProt Q14694); experiment: In vitro USP10 activity assay (Ubiquitin-AMC); format: biochemical; conditions: ubiquitin-AMC as substrate; purified enzyme; read-out: USP10 biochemical IC50
# T1 construct: A construct of human USP10 covering residues 376-798 in the pET28a vector; His-tag (cleaved yes); made in house; host or cells: E. coli BL21 (DE3)
# Description: Protein expression and purification. A construct of human USP10 covering residues 376-798 in the pET28a vector was over-expressed in E. coli BL21 (DE3) in TB medium in the presence of […] of kanamycin. Cells were grown at 37° C. to an OD of 0.8, cooled to 17° C., induced with 500 μM isopropyl-1-thio-D-galactopyranoside, incubated overnight at 17° C., collected by centrifugation, and stored at −80° C. Cell pellets were sonicated in buffer A (50 mM HEPES (pH 7.5), 300 mM NaCl, 10% glycerol, 10 mM Imidazole, and 3 mM BME) and the resulting lysate was centrifuged at 30,000×g for 30 min. Ni-NTA beads (Qiagen) were mixed with lysate supernatant for 30 min and washed with buffer A. Beads were transferred to an FPLC-compatible column and the bound protein was washed with 15% buffer B (50 mM HEPES (pH 7.5), 300 mM NaCl, 10% glycerol, 300 mM Imidazole, and 3 mM BME) and eluted with 100% buffer B. Thrombin was added to the eluted protein and incubated at 4° C. overnight. The sample was then passed through a HiPrep 26/10 desalting column (GE Healthcare) pre-equilibrated with buffer A without imidazole, and the eluted protein was subjected to a second Ni-NTA step to remove His-tag and Thrombin. The eluent was concentrated and passed through a Superdex® 200 10/300GL column (GE Healthcare) in a buffer containing 20 mM HEPES (pH 7.5), 150 mM NaCl, and 1 mM DTT. Fractions were pooled, concentrated to 20 mg/ml, and frozen at −80° C.
# In vitro USP10 activity assay. Recombinant USP10, residues 376-798, was tested for its activity in a Ubiquitin-AMC assay in presence or absence of inhibitors. For this assay, 10 nM USP10 were pre-incubated with different concentrations of inhibitors or DMSO as a control in 50 mM HEPES pH7.6, 0.5 mM EDTA, 11 uM ovalbumin, and 5 mM DTT. The reaction was incubated for 6 hours at room temperature prior to the addition of 2 uM Ubiquitin-AMC (Boston Biochem) substrate. The initial rate of the reaction was measured by collecting fluorescence data at one minute intervals over 30-minute period using a CLARIOstar® fluorescence plate reader at excitation and emission wavelength of 345 and 445 nm, respectively. The calculated initial rate values were plotted against inhibitor concentrations to determine IC50 values.
# USP10 = USP10 (Homo sapiens, UniProt Q14694); experiment: MALDI TOF DUB assay with diubiquitin substrate; format: biochemical; conditions: diubiquitin (K11) as substrate
# Description: Thirty-one human DUBs were freshly diluted in the reaction buffer (40 mM Tris-HCl, pH 7.6, 5 mM DTT, 0.005% BSA) at different concentrations (see Table 10). […] The enzymes were pre-incubated with the compounds for 30 min at room temperature at 10 μM final concentration. 0.48 μl of di-ubiquitin topoisomers were added to the reaction mixture to initiate the reaction. The reaction was sealed and incubated for 30 min at room temperature and stopped by adding TFA to a final concentration of 2% (v/v).
# Mass spectrometry data was acquired on an UltrafleXtreme MALDI-TOF mass spectrometer (Bruker Daltonics) with Compass 1.3 control and processing software. The sample carrier was taught before each analysis to optimize and centre laser shooting. […] Samples were analysed in automatic mode (AutoXecute, Bruker Daltonics). […] An amount of 3,500 shots were summed up in “random walk” and with “large” smartbeam laser focus. Spectra were automatically calibrated on the ^15N-Ub m/z and processed using smoothing (Savitzky-Golay algorithm) and baseline subtraction (‘TopHat’) for reproducible peak annotation on non-resolved isotope distributions: one cycle, 0.2 m/z for the width. For area calculation, the complete isotopic distribution was taken into account. […]
# [4] = system: FLT3-ITD+, D835Y+ AML primagraft; experiment: Primagraft study in NSG mice; format: in vivo; conditions: 15 mg/kg
# Description: All animal studies were performed according to protocols approved by the Dana-Farber Cancer Institute's Institutional Animal Care and Use Committee. […]. Mice were sacrificed on day 21 of treatment. Bone marrow was flushed from mouse femurs, and spleens and livers were dissected and preserved first in formalin, followed 24 hours later by preservation in 70% ethanol. […]; All AML primagraft samples used in the studies described herein were obtained through the Public Repository of Xenografts (proxe.org).
# [5] = system: Ba/F3-FLT3-ITD-luc+ cells; experiment: Non-invasive in vivo bioluminescence study
# T1 sequence (Q14694 376-798): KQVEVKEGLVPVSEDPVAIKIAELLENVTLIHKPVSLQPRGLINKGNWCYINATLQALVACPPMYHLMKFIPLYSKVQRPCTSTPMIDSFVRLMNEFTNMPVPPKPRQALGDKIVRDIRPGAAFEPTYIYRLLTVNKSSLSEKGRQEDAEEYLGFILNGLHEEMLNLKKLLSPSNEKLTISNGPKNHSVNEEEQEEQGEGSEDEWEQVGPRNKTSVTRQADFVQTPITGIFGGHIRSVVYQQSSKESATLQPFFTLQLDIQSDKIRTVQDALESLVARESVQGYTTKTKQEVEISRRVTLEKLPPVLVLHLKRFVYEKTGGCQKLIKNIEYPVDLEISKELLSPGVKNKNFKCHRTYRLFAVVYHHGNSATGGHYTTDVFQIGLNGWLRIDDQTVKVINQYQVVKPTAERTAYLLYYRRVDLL
# Sequence of USP10 (Q14694 whole entry): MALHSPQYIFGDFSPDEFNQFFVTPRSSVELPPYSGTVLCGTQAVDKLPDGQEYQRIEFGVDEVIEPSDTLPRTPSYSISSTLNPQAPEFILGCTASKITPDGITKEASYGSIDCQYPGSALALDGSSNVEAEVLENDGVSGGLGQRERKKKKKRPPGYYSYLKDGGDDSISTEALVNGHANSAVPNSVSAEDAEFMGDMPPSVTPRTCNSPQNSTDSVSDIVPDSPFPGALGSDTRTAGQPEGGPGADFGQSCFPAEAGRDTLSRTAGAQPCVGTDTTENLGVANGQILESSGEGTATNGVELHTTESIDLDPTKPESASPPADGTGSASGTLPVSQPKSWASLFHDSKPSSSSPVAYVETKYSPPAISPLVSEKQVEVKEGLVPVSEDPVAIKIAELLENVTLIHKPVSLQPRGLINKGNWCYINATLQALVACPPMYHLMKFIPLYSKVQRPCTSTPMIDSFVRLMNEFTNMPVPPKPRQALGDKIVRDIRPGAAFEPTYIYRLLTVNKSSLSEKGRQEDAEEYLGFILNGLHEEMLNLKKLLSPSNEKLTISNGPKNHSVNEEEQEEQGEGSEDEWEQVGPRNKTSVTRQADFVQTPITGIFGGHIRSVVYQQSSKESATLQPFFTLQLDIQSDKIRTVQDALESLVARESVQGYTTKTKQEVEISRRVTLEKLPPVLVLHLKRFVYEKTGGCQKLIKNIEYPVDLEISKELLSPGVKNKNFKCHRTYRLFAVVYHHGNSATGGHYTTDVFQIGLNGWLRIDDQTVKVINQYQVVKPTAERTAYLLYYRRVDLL
# Sequence of USP7 (Q93009 whole entry): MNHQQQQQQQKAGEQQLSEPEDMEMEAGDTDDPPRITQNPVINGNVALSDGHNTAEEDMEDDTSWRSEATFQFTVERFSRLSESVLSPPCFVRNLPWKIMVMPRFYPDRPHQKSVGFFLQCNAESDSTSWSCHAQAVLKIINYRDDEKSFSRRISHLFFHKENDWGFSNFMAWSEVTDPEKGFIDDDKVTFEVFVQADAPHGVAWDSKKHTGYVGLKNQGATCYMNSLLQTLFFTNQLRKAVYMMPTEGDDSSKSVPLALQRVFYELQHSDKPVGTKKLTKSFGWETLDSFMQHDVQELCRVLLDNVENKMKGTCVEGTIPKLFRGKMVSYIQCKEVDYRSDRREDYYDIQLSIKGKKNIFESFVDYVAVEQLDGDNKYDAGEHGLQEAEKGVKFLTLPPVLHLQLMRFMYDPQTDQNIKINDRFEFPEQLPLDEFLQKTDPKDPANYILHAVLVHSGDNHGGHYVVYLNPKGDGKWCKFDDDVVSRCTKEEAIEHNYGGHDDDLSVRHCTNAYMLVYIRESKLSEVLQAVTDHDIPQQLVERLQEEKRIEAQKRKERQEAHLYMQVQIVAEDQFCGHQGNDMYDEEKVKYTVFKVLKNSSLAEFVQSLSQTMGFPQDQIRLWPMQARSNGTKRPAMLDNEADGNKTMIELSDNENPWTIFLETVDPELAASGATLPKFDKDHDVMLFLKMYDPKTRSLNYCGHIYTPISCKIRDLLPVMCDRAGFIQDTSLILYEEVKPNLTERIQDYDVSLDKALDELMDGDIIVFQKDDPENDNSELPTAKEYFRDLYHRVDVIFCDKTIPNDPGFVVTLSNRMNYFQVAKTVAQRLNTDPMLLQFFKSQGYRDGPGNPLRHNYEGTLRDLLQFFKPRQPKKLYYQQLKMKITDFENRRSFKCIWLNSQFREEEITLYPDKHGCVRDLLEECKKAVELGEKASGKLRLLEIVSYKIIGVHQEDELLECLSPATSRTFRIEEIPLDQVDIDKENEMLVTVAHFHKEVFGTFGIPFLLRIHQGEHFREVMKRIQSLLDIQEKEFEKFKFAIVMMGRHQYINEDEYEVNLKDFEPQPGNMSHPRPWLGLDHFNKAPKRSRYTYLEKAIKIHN
smiles,measurement,setting,value
O=C(NCCN1CCN(Cc2ccccc2)CC1)c1ccc2nc3c(c(Cl)c2c1)CCCC3 [C598-0571],IC50,HEL,40.7 µM
same,IC50,K052,35.1 µM
same,IC50,K562,35.9 µM
same,IC50,MOLM13-luc+,12.6 µM
same,IC50,MOLM14,18.6 µM
same,IC50,"MV4,11",9.2 µM
same,IC50,NB4-luc+,29 µM
same,IC50,NOMO-1,20.9 µM
same,IC50,OCI-AML5,37.7 µM
same,IC50,P31,30 µM
same,IC50,TF-1,18.4 µM
same,IC50,U937,21.9 µM
same,IC50,"PBMCs; 24 hr assay, PBMC#1, read-out: IC50 (+/−S.D.) PBMC#1",32.3 µM
same,IC50,"PBMCs; 24 hr assay, PBMC#2, read-out: IC50 (+/−S.D.) PBMC#2",31.3 µM
same,IC50,"PBMCs; 72 hr assay, PBMC#1, read-out: IC50 (+/−S.D.) PBMC#1",16.6 µM
same,IC50,"PBMCs; 72 hr assay, PBMC#2, read-out: IC50 (+/−S.D.) PBMC#2",14.8 µM
same,IC50,[1]; 24 hr assay,10.3 µM
same,IC50,[1]; 72 hr assay,1.4 µM
same,IC50,USP7,22 µM
same,Mitochondrial priming for apoptosis,[2],more strongly
CC(=O)c1cc([N+](=O)[O-])c(Sc2ccc(F)cc2F)s1 [P22077],IC50,"PBMCs; Homo sapiens, 24 hr assay, PBMC#1, read-out: IC50 (+/−S.D.) PBMC#1",10.6 µM
same,IC50,"PBMCs; Homo sapiens, 24 hr assay, PBMC#2, read-out: IC50 (+/−S.D.) PBMC#2",7.8 µM
same,IC50,"PBMCs; Homo sapiens, 72 hr assay, PBMC#1, read-out: IC50 (+/−S.D.) PBMC#1",6.9 µM
same,IC50,"PBMCs; Homo sapiens, 72 hr assay, PBMC#2, read-out: IC50 (+/−S.D.) PBMC#2",4.4 µM
same,IC50,"[1]; Homo sapiens, 24 h",6.9 µM
same,IC50,"[1]; Homo sapiens, 72 h",2.6 µM
same,IC50,[3],15 µM
same,IC50,USP10,6 µM
same,Tolerability,[4]; 21-day treatment period,generally well-tolerated; also recorded: generally well tolerated
same,Average weight loss,"[4]; 21 days, same for vehicle-treated, none below 15% weight loss",2 to 3 g
same,Reduction in luciferase-positive signal in bone marrow versus vehicle,"[5]; 50 mg/kg IP BID, 4 days",approximately 2 fold
same,Lower percentage of FLT3 expression in bone marrow versus vehicle,"[5]; 50 mg/kg IP BID, 4 days, flow cytometry",approximately 2 fold
same,Vital organ toxicity,[5]; mouse studies,no evidence of vital organ toxicity
same,Body weight versus vehicle,[5]; treated for up to 11 days,no significant difference in weight
